Source: PubChem BioAssay (NCI)
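Interpolation was linear, between the two tested concentrations surrounding the appropriate level; five concentrations were tested over 48 hours in 96-well plates. GI50 is the concentration that inhibits growth by half. The concentration for full growth arrest is given as TGI.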

Assays:
Assay in all cases: DTP human tumour cell line panel, 48 h
CCRF-CEM leukemia = system: CCRF-CEM leukemia
DU-145 prostate = system: DU-145 prostate
SN12C renal = system: SN12C renal
IGROV1 ovarian = system: IGROV1 ovarian
HOP-62 NSCLC = system: HOP-62 NSCLC
MALME-3M melanoma = system: MALME-3M melanoma
SF-268 CNS = system: SF-268 CNS
NCI-H226 lung = system: NCI-H226 lung
NCI-H23 lung = system: NCI-H23 lung
OVCAR-4 ovarian = system: OVCAR-4 ovarian

SMILES | GI50 (CCRF-CEM leukemia) [µM] | TGI (CCRF-CEM leukemia) [µM] | GI50 (DU-145 prostate) [µM] | TGI (DU-145 prostate) [µM] | GI50 (SN12C renal) [µM] | TGI (SN12C renal) [µM] | GI50 (IGROV1 ovarian) [µM] | TGI (IGROV1 ovarian) [µM] | GI50 (HOP-62 NSCLC) [µM] | TGI (HOP-62 NSCLC) [µM] | GI50 (MALME-3M melanoma) [µM] | TGI (MALME-3M melanoma) [µM] | GI50 (SF-268 CNS) [µM] | TGI (SF-268 CNS) [µM] | GI50 (NCI-H226 lung) [µM] | TGI (NCI-H226 lung) [µM] | GI50 (NCI-H23 lung) [µM] | TGI (NCI-H23 lung) [µM] | GI50 (OVCAR-4 ovarian) [µM] | TGI (OVCAR-4 ovarian) [µM]
Cn1cc(S(=O)(=O)N2CCC3=Cc4c(cnn4-c4ccc(F)cc4)C[C@]3(C(=O)c3cc(C(F)(F)F)ccn3)C2)cn1 | > 100 | > 100 | > 100 | > 100 | > 100 | > 100 | 23.3 | > 100 | 43 | > 100 | > 100 | > 100 | > 100 | > 100 | 81.1 | > 100 | > 100 | > 100 | > 100 | > 100
NCCCn1c2c(c3ccccc3c1=O)C(=O)c1ccccc1-2 | < 0.0462 | 0.375 | 0.118 | 3.71 | 0.0791 | 0.465 | 0.34 | > 64.4 | 0.0875 | 0.64 | 0.156 | 1.46 | 0.498 | 8.55 | 0.143 | 1.74 | – | 0.977 | 0.785 | 9.82
CC1(C)N=C(N)N=C(N)N1c1cccc(OCCOc2cccc([N+](=O)[O-])c2)c1 | 1.23 | > 100 | 4.38 | > 100 | 4.04 | > 100 | 0.565 | > 100 | 31.2 | > 100 | 7.54 | > 100 | 0.535 | > 100 | 48.6 | > 100 | 1.73 | > 100 | 14.4 | > 100
COc1cc2c3c(n(CCCN(C)CCO)c(=O)c2cc1OC)-c1cc2c(cc1C3=O)OCO2 | – | 0.473 | 0.816 | > 100 | 2.75 | > 100 | 2.47 | > 55.6 | 1.17 | > 100 | > 55.7 | > 100 | > 22.1 | > 100 | 1.7 | 26.5 | 0.839 | > 24.6 | 30.9 | > 72.4
Oc1ccc(/C=C/c2cc(O)cc3c2C(c2cc(O)cc(O)c2)C(c2ccc(O)c(O)c2)O3)cc1 (stereo unspecified) | – | > 100 | – | > 100 | – | > 100 | – | > 100 | – | > 100 | – | 80.6 | – | > 100 | – | > 100 | – | 63.9 | – | 41.2
CC(Cl)CN1c2ccccc2Sc2ccc(Cl)cc21 (stereo unspecified) | – | > 10 | – | > 10 | – | > 10 | – | > 10 | – | > 10 | – | > 10 | – | > 10 | – | > 10 | – | > 10 | – | > 10
c1ccc2c(c1)c1ccccc1c1ccccc21 | > 100 | > 100 | > 100 | > 100 | > 100 | > 100 | > 100 | > 100 | > 100 | > 100 | > 100 | > 100 | > 100 | > 100 | > 100 | > 100 | > 100 | > 100 | > 100 | > 100
NCCCOc1cc2ccccc2cc1C(=O)NCCCOc1cc2ccccc2cc1C(=O)Nc1ccc(Cl)cc1O | 0.334 | 11.5 | 0.72 | 2.17 | 1.73 | 3.83 | 1.9 | 4.42 | 0.34 | 1.14 | 1.48 | 3.5 | 0.904 | 3.17 | 0.477 | 1.11 | 0.598 | 2.3 | 0.247 | 0.737
CN1C(NNC(=O)c2cccnc2)=NS(=O)(=O)c2cc(Cl)ccc21 | > 100 | > 100 | > 100 | > 100 | > 100 | > 100 | > 100 | > 100 | > 100 | > 100 | > 100 | > 100 | > 100 | > 100 | > 100 | > 100 | > 100 | > 100 | > 100 | > 100
Cc1sc2c(c1C)C(c1ccc(Cl)cc1)=N[C@@H](CC(=O)Nc1ccc(OCCOCCOCCOCCNc3cccc4c3C(=O)N(C3CCC(=O)NC3=O)C4=O)cc1)c1nnc(C)n1-2 (stereo partly specified) | < 0.0222 | > 100 | > 59.3 | > 100 | – | > 100 | – | > 100 | < 0.01 | > 100 | > 100 | > 100 | 0.254 | > 100 | < 0.0212 | > 100 | 3.75 | > 100 | < 0.0174 | > 100
C=C(C)[C@@H]1CC[C@]2(C)[C@H](CC[C@@H]3[C@@H]([C@@](C)(O)CCC=C(C)C)CC[C@]32C)[C@@]1(C)CCC(=O)O | 18 | 48.2 | 16.7 | 32.4 | 17.2 | 40.5 | 18.7 | 38.4 | 18.6 | 45.3 | 14.4 | 28.2 | 16.1 | 32.8 | 18.1 | 37.3 | 18.1 | 35.6 | 16.3 | 39
C=CCn1c(SCC(=O)Nc2ccc(C(=O)/C=C/c3cc(OC)c(OC)c(OC)c3)cc2)nnc1-c1ccc(OC)cc1 | 0.344 | > 100 | 0.453 | 16 | 0.839 | 19.1 | 0.324 | 1.9 | 0.691 | 1.75 | 1.89 | 36.8 | 0.399 | 11.2 | 0.445 | 1.55 | 0.67 | 2.66 | 0.783 | 10.5
Cn1c(=S)c2[nH]c(SCCCc3ccccc3)nc2n(C)c1=O | – | 49.8 | – | > 100 | – | > 100 | – | > 100 | – | > 100 | – | > 100 | – | > 100 | – | 81.1 | – | > 100 | – | > 100
